What is called IC50 is the concentration needed to halve the response being measured.

Activity calls are given as the source filed them.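 How the source made its calls: active means maximal inhibition of USP17 at or above 30% in the confirmation dose-response, a value not among the printed readouts; inactive means the rest.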

Chain of Ubiquitin carboxyl-terminal hydrolase 17-like protein 5 (Homo sapiens) (A8MUK1 whole entry, looked up): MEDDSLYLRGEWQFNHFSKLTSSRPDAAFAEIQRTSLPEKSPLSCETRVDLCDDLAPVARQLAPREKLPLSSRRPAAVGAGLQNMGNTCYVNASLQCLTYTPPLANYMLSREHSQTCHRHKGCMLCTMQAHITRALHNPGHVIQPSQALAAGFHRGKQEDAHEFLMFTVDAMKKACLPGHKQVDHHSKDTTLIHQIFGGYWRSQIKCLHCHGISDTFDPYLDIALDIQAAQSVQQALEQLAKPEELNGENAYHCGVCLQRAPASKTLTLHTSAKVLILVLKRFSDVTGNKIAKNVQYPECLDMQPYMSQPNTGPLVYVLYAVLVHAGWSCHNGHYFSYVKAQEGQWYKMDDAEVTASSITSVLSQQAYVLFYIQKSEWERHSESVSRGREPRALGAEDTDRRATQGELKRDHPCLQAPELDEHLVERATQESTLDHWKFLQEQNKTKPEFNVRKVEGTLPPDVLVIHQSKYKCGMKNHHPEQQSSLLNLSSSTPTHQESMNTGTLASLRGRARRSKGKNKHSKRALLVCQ

This assay addresses Ubiquitin carboxyl-terminal hydrolase 17-like protein 5 (Homo sapiens) (UniProt A8MUK1). Put plainly: ubiquitin-specific protease 17 DUB inhibitors, concentration-effect assay, cell-free, verification of initial screening actives (AID 1645864). The settings on record: purified USP17, ubiquitin-rhodamine cleavage fluorescence, 3 h.
Regarding `O=C(COc1ccccc1-c1nnc(-c2ccccc2)o1)Nc1ccc(F)cc1F`, the IC50 was 1.87 µM. With `CCn1c(SCC(=O)N2c3ccccc3CC2C)nnc1-c1ccc2c(c1)OCCO2` (configuration not stated) the figure was 34.4 µM. With `COc1ccc(NC(=O)c2[nH]nc3c2COc2ccccc2-3)c(OC)c1` the figure was 5.5 µM; with `Cc1cccc(NC(=O)Nc2ccc(C)n(CC(=O)Nc3ccccc3)c2=O)c1`, 22.6 µM; with `COc1ccccc1-c1ccc(CN2[C@@H](c3ccccc3)C[C@@H]3NC(=O)CCC[C@H]32)cc1`, > 50 µM (inactive). Consider `CCOc1ccccc1NC(=O)Cn1c(-c2ccc3c(c2)OCO3)cn(-c2ccc(OC)cc2)c1=O`, for which the IC50 was > 50 µM (inactive). For `CCc1nc(-c2cccc(NC(=O)c3ccc(C#N)cc3F)c2)no1`, the IC50 is > 50 µM (inactive). As to `COc1ccccc1-c1nc(Cn2nnc(C(=O)Nc3cc(C)cc(C)c3)c2N)c(C)o1`, the IC50 was 22.3 µM. To `CC(C)c1ccc(NC(=O)c2cc3ncc(Br)cn3n2)cc1` belongs 1.73 µM. `Cc1ccc(-c2ncc(C(=O)NCc3cccc(C)c3)c(-c3ccncc3)n2)cc1`: the IC50 is > 50 µM (inactive).

Regarding `O=C(Cc1noc2ccccc12)NCC(=O)Nc1ccc(Cl)cc1`, the 50% inhibitory concentration (IC50) is 18.1 µM. To `Cc1ccc(C)c(CSC2=NCCN2C(=O)c2ccco2)c1` belongs > 50 µM (inactive); to `CC(c1ccccc1)c1nc(-c2ccc(=O)[nH]c2)no1` (configuration not stated), > 50 µM (inactive); to `CCOC(=O)N1CCN(S(=O)(=O)c2ccc(C(=O)Nc3ccc(Br)cc3)cc2)CC1`, 1.78 µM. With `COc1ccc(NC(=O)CC(=O)c2ccc([N+](=O)[O-])cc2)cc1S(=O)(=O)Nc1ccc(Br)cc1` the figure was 22 µM; with `Cc1cc(C)n(-c2cccc(C(=O)Nc3ccc4c(c3)CCN4S(C)(=O)=O)c2)n1`, > 50 µM (inactive); with `CC1Oc2ccccc2C(=O)N(Cc2ccc([N+](=O)[O-])cc2)C1=O` (configuration not stated), > 50 µM (inactive). Consider `Cc1ccccc1C(=O)OCCN1C(=O)c2cccc3c(N4CCOCC4)ccc(c23)C1=O`, for which the IC50 is > 50 µM (inactive). To `O=C(NCc1ccco1)c1ccc2c(c1)N(Cc1cccc(F)c1)C(=O)c1ccccc1S2` belongs > 50 µM (inactive); to `COc1c(O)c(O)c2c(=O)cc(-c3ccc(O)cc3)oc2c1OC`, 38.5 µM. To `Clc1ccc(C[n+]2cc(-c3ccc(Cl)cc3)n3c2CCC3)cc1` belongs > 50 µM (inactive); to `COc1ccc(CCC(=O)Nc2ccc3c(c2)Sc2ncccc2C(=O)N3C)cc1`, > 50 µM (inactive). In the case of `O=C(CCc1c[nH]c2ccccc12)Nc1ccc(N2CCOCC2)cc1`, the IC50 was 30.5 µM. On to `CCS(=O)(=O)N1CCc2cc(C(=O)Nc3ccc4c(c3)OCCO4)ccc21`, for which the IC50 is > 50 µM (inactive).

`CCc1ccc(C(C)NC(=O)C2CCN(c3ccc4nncn4n3)CC2)cc1` (configuration not stated): the IC50 was > 50 µM (inactive). On to `Cc1cc(=O)n(CC(=O)Nc2ccccc2C)c(Nc2ccc(F)cc2)n1`, for which the 50% inhibitory concentration (IC50) was 26.8 µM. With `CCN1C(SCc2ccc(F)cc2)=NS(=O)(=O)c2ccccc21` the figure was > 50 µM (inactive).

Turning to `COc1ccc(OC)c(-n2c(SCC(=O)N3CCc4ccccc43)nnc2-c2cccc(S(=O)(=O)N(C)C)c2)c1`, the IC50 was 3.51 µM. Turning to `Cc1ccc2nc(CNC(=O)c3ccccc3-c3nc(-c4ccc(F)cc4)no3)[nH]c2c1`, the IC50 was 27.2 µM. As for `Cc1ccc(Cn2nnc(C(=O)NCc3ccco3)c2-n2cccc2)cc1`, the IC50 was 42.4 µM. With `CC1(C)OC2=C(C(=O)c3cc(O)cc(O)c3C2=O)c2cc(CO)c(O)cc21` the figure was 5.7 µM. With `COc1ccc(NS(=O)(=O)c2ccc(NC(=O)Nc3ccc(Cl)cc3)cc2)cc1` the figure was 23.9 µM; with `CCc1cc2c(=O)[nH]c(Cc3ccc(OC)cc3)nc2s1`, 22.5 µM; with `COc1cccc(NC(=O)C2CCN(C(=O)c3cc(-c4cccnc4)n[nH]3)CC2)c1`, > 50 µM (inactive). `Cc1cc(C)c2c(-n3cccc3)c(C(=O)NCCc3ccc(S(N)(=O)=O)cc3)sc2n1`: the IC50 was > 50 µM (inactive).

For `Cc1cccc(C(=O)N2CCN3Cc4ccccc4N(C)CC3C2)c1` (configuration not stated), the IC50 is > 50 µM (inactive). As to `Cn1cc(CCNC(=O)c2cc3ccccc3[nH]2)c2cccnc21`, the IC50 is > 50 µM (inactive). With `c1coc(CNc2nc3ccccc3n3nnnc23)c1` the figure was > 50 µM (inactive); with `CC(=O)C1=C(O)[C@]2(O)C(=O)c3c(c(C)c4ccc(C)c(O)c4c3O)C[C@H]2[C@@H](N)C1=O`, 1.14 µM. As to `Cn1cc(-c2cnc(-c3cccc(F)c3)nc2)cc1C(=O)NCc1cccnc1`, the IC50 is 37.8 µM. For the compound `O=[N+]([O-])c1ccc(NCC2COc3ccccc3O2)c(Cl)c1` (configuration not stated), the IC50 is > 50 µM (inactive). To `Cc1cc(C)c2nc3c(cc2c1)CN(Cc1ccco1)C(=O)O3` belongs > 50 µM (inactive). Regarding `Cc1cc(=O)n2c3c(c4c(cc13)c(CO)cc(=O)n4C)OC2`, the IC50 was 9.79 µM.

`COc1ccccc1NS(=O)(=O)c1cccc(NC(=O)CCc2nc3ccccc3s2)c1`: the IC50 was 4.09 µM. With `COc1ccc(C2SCC(=O)Nc3c2c(=O)[nH]n3C2CCCCCC2)cc1` (configuration not stated) the figure was 33.5 µM. To `CC(=O)Nc1cc(-c2cccc(O)c2)cn2c(-c3cnn(C)c3)cnc12` belongs 3.57 µM. To `O=C(Nc1ccccc1)c1ccc2c(c1)CC(c1ccccc1)OC2=O` (configuration not stated) belongs 16 µM. In the case of `Cc1nc(SCC#N)c2oc3ccccc3c2n1`, the IC50 is 44.1 µM. On to `Clc1ccccc1CSc1nnc(C2CCCCC2)n1Cc1ccccc1`, for which the half-inhibitory concentration (IC50) was 40.8 µM. On to `Cc1ccc(C(C)C)cc1OCCOCCN1CCNCC1`, for which the IC50 was > 50 µM (inactive). In the case of `Cc1ccc2[nH]c(=O)c(-c3nc4ccc(C)cn4c3NCc3ccc(F)cc3)cc2c1`, the IC50 was 1.98 µM. For `COc1ccc(C(C(=O)NCc2ccccc2)N(C(=O)CCN2CCc3ccccc32)c2ccc(C)c(C)c2)cc1` (configuration not stated), the IC50 was > 50 µM (inactive).

Take `Cc1cccc(NC(=O)CN2C(=O)COc3cc(S(=O)(=O)N4CCCC4)ccc32)c1C`: the IC50 was 26.4 µM. In the case of `N#Cc1ccc(COC(=O)c2ccc3ccccc3n2)cc1`, the IC50 is > 50 µM (inactive). To `CC(=O)c1ccc(Cc2ncc(C(F)(F)F)cc2Cl)s1` belongs > 50 µM (inactive); to `Cc1noc(C)c1CN1CC[C@H]2O[C@H](C(=O)NCc3ccco3)CC[C@H]21`, > 50 µM (inactive); to `COc1ccc(C)cc1NC(=O)Cc1csc(NC(=O)c2ccc(=O)[nH]c2)n1`, 40.5 µM. `CCOc1ccc2c(c1)c(=O)c(C(=O)c1ccccc1)cn2CC(=O)Nc1ccc2c(c1)OCCO2`: the IC50 was 20.4 µM. In the case of `COc1ccc(Cl)cc1NC(=O)c1cc(-c2ccccn2)n[nH]1`, the IC50 was 0.202 µM.

Regarding `NS(=O)(=O)c1ccc(NS(=O)(=O)c2ccc(NC(=O)Nc3ccc(Cl)cc3)cc2)cc1`, the IC50 was 37.8 µM. On to `COc1cc(Cl)ccc1Nc1ncc(C(=O)Nc2cc(OC)c(OC)c(OC)c2)c2ccccc12`, for which the IC50 was < 0.05 µM. Turning to `COC(=O)[C@]1(O)O[C@@]2(C(=O)OC)c3c(oc4cc(C)cc(O)c4c3=O)[C@H]3c4c(oc5cc(C)cc(O)c5c4=O)C[C@H]1[C@H]32`, the IC50 is > 50 µM (inactive). `CCN1C(SCc2ccccc2F)=NS(=O)(=O)c2ccccc21`: the IC50 was > 50 µM (inactive).

As for `O=C(Cn1cccc1-c1nc(-c2ccccc2)cs1)N1CCOCC1`, the IC50 was 16 µM.

For the compound `CCOc1ccc(NC(=O)c2cc(-c3ccccc3)c(N3CCOCC3)s2)cc1`, the IC50 was 19.9 µM.

`Cc1ccc(NC(=O)CSc2nc3c(cc2C#N)C(=O)CCC3)cc1`: the IC50 was 29.8 µM. As for `O=c1ccc(-c2noc(Cc3cccc(Cl)c3)n2)c[nH]1`, the IC50 was > 50 µM (inactive).

As for `COc1cccc(NC(=O)C2Cn3ccnc3C3(CCN(C(C)=O)CC3)O2)c1` (configuration not stated), the IC50 is > 50 µM (inactive). To `O=C(Nc1ccccc1)C1CCCN(C(=O)c2cc3ccccc3[nH]2)C1` (configuration not stated) belongs 38.7 µM; to `COc1ccc(C(=O)NCC(c2ccc3c(c2)CCCN3C)N2CCCC2)cc1` (configuration not stated), > 50 µM (inactive); to `CCOc1ccc(NC(=O)Cn2c(=O)n(CCCCCC(=O)NCc3ccc(F)cc3)c(=O)c3sccc32)cc1`, 2.16 µM. To `COC1/C=C/OC2(C)Oc3c(C)c(O)c4c(c3C2=O)C(=O)C=C(NC(=O)/C(C)=C\C=C\C(C)C(O)C(C)C(O)C(C)C(OC(C)=O)C1C)C4=O` (configuration not stated) belongs 18.7 µM; to `CC(OC(=O)CNC(=O)c1ccc(Br)cc1)C(=O)Nc1ccc2c(c1)OCCO2` (configuration not stated), 30.4 µM. Turning to `COc1cnc(-c2ccccn2)nc1Sc1ccccc1Cl`, the IC50 is 16.2 µM. For the compound `COc1cccc(NC(=O)c2nnn(-c3ccccc3)n2)c1`, the IC50 is > 50 µM (inactive).

Regarding `O=S(=O)(Cc1nnc(-c2ccccc2C(F)(F)F)o1)c1ccc(Cl)cc1`, the IC50 was > 50 µM (inactive). Regarding `Cc1ccc(Cn2c(=O)n(CCC(=O)NCCc3ccccc3)c(=O)c3ccccc32)cc1`, the IC50 was 11.7 µM. To `CC(C)c1cc2c(c(O)c1O)[C@@]13CCCC(C)(C)[C@@H]1C[C@@H]2OC3=O` belongs 19.5 µM; to `Cc1ccc(CNC(=O)CCCn2c(=O)c3sccc3n(CC(=O)Nc3cc(Cl)ccc3C)c2=O)cc1`, 2.83 µM. In the case of `COc1ccc(NC(=O)COc2cc(CSc3ccccc3)ncc2OC)cc1`, the IC50 is 43.7 µM.

Consider `O=C(NCc1ccncc1)C1CCN(c2cncnc2N2CCCCC2)CC1`, for which the IC50 was > 50 µM (inactive). To `COc1ccc(-c2nc(-c3nnn(Cc4ccc(F)cc4)c3C)no2)c(OC)c1` belongs 6.53 µM; to `CCCn1c(=O)n(CC(=O)c2ccccc2F)c2c(C(N)=O)nc(-c3ccco3)nc21`, > 50 µM (inactive); to `O=C(CN1CCCCC1)Nc1nnc(-c2ccc([N+](=O)[O-])cc2)s1`, 19.9 µM. With `O=c1c2c(ccn1Cc1cc(F)ccc1F)ccn2Cc1cccnc1`, the IC50 was > 50 µM (inactive). With `COc1ccccc1NC(=O)CNC(=O)c1nn(-c2ccc(OC)c(OC)c2)c(=O)c2ccccc12` the figure was 29.4 µM; with `CCC(C(=O)NCc1ccncc1)N(c1cccc(Cl)c1)S(C)(=O)=O` (configuration not stated), > 50 µM (inactive).

Source of the values: PubChem BioAssay AID1645864 (Buhrlage Lab, Dana-Farber Cancer Institute and Novartis …, 2021).
